This note sets out measurements from DBAASP.

Values after ≈ are worked out from the molar mass of the structure shown.

Assay in all cases: ≥ marks a high value that may be exact or a test limit, other limits are often not marked, values filed in µg/mL are converted to µM
The subject of test [1] is Escherichia coli ATCC 25922.
Test [2] deals with Candida albicans ATCC 90028.
Test [3] has as its system Staphylococcus aureus ATCC 25923.
Test [4] deals with Staphylococcus aureus.
The subject of test [5] is Acinetobacter baumannii ATCC 19606.
Test [6] relates to Staphylococcus aureus ATCC 29213.
For test [7], the system named is Enterococcus faecalis ATCC 29212.
The test system of test [8] is Pseudomonas aeruginosa ATCC 27853.
Test [9] has as its system Candida albicans.
For test [10], the system named is Staphylococcus epidermidis ATCC 12228.
Test [11] concerns Pseudomonas aeruginosa PAO1.
Test [12] has as its system Escherichia coli UB1005.
Test [13] has as its system Salmonella enterica subsp. enterica serovar Typhimurium ATCC 14028.

With `CC[C@H](C)[C@@H]1NC(=O)[C@H](Cc2ccccc2)NC(=O)[C@@H](NC(=O)[C@H](Cc2ccccc2)NC(=O)[C@@H](NC(=O)[C@H](CCCCN)NC(=O)[C@@H]2CCCN2C(=O)[C@H](CC(C)C)NC(=O)[C@@H](NC(=O)[C@H](CCCCN)NC(=O)[C@H](C)NC(=O)[C@H](C)NC(=O)[C@@H](NC(=O)[C@H](CO)NC(=O)[C@H](C)NC(=O)[C@@H](NC(=O)[C@@H](NC(=O)[C@@H]2CCCN2C(=O)[C@H](CC(C)C)NC(=O)[C@@H](N)Cc2ccccc2)C(C)C)[C@@H](C)CC)C(C)C)C(C)C)C(C)C)CSSC[C@@H](C(=O)O)NC(=O)[C@H](CCCCN)NC(=O)[C@H](CCCCN)NC(=O)[C@H]([C@@H](C)O)NC1=O` [FLPVIASVAAKVLPKVFCFITKKC], the MIC (in general, the least concentration at which growth counts as inhibited) in [1] was 50 µM (≈ 131 µg/mL); in test [2] it was 3 µM (≈ 7.86 µg/mL); in [3], 1.5 µM (≈ 3.93 µg/mL).

Turning to `CC[C@H](C)[C@H](NC(=O)[C@H](Cc1ccccc1)NC(=O)[C@@H]1CCCN1C(=O)[C@@H](NC(=O)[C@@H](N)CC(C)C)C(C)C)C(=O)NCC(=O)N[C@@H](CCCN=C(N)N)C(=O)N[C@H](C(=O)N[C@@H](CC(C)C)C(=O)NCC(=O)NCC(=O)N[C@@H](CC(C)C)C(=O)N[C@@H](CC(C)C)C(=O)N[C@@H](C)C(=O)N[C@@H](CCCN=C(N)N)C(=O)N[C@@H](Cc1ccccc1)C(N)=O)[C@@H](C)O` [LVPFIGRTLGGLLARF], the MIC was 64 µM (≈ 111 µg/mL) in [4]; above 64 µM in test [5]; 16 µM (≈ 27.7 µg/mL) in test [6]; above 64 µM in [1]; above 64 µM in test [7].

For `CC(C)C[C@H](NC(=O)[C@H](CC(C)C)NC(=O)[C@H](CCCCN)NC(=O)[C@H](CCCCN)NC(=O)[C@H](CC(C)C)NC(=O)CNC(=O)[C@H](CCCCN)NC(=O)[C@H](CC(C)C)NC(=O)[C@@H](N)Cc1ccccc1)C(N)=O` [FLKGLKKLL], the MIC is 7.55 µM (≈ 7.99 µg/mL) in test [8], above 121 µM in [5], 121 µM (≈ 128 µg/mL) in test [1] and 121 µM (≈ 128 µg/mL) in test [3].

In the case of `CC[C@H](C)[C@H](NC(=O)[C@H](CCCCN)NC(=O)[C@H](CO)NC(=O)[C@H](CC(C)C)NC(=O)[C@H](CC(C)C)NC(=O)CNC(=O)[C@H](C)NC(=O)[C@@H](NC(=O)[C@H](C)NC(=O)CNC(=O)[C@@H](NC(=O)[C@@H](N)Cc1ccccc1)[C@@H](C)CC)C(C)C)C(=O)N[C@@H](Cc1ccccc1)C(N)=O` [FIGAVAGLLSKIF], the minimal inhibitory concentration (MIC) in test [5] is above 29.9 µM; in test [6], 37.4 µM (≈ 50 µg/mL).

`CC(C)C[C@H](NC(=O)[C@H](C)NC(=O)[C@H](CCCCN)NC(=O)[C@H](C)NC(=O)[C@H](CC(C)C)NC(=O)[C@H](C)NC(=O)[C@H](CCCCN)NC(=O)[C@H](C)NC(=O)[C@H](C)NC(=O)[C@H](C)NC(=O)[C@H](CCCCN)NC(=O)[C@H](C)NC(=O)[C@@H](NC(=O)[C@H](C)NC(=O)[C@H](CCCCN)NC(=O)[C@H](C)NC(=O)[C@H](CC(C)C)NC(=O)[C@@H](N)Cc1ccccc1)C(C)C)C(=O)O` [FLAKAVAKAAAKALAKAL] returned a minimum inhibitory concentration (MIC) in [9] of 82 µM (≈ 144 µg/mL). This lies in the double-digit micromolar range.

Consider `CC[C@H](C)[C@H](NC(=O)[C@H](CCCCN)NC(=O)CNC(=O)[C@@H](NC(=O)[C@@H](NC(=O)[C@H](CO)NC(=O)CNC(=O)[C@H](C)NC(=O)[C@H](CCCCN)NC(=O)[C@H](CO)NC(=O)[C@H](C)NC(=O)[C@H](CCSC)NC(=O)CN)[C@@H](C)CC)C(C)C)C(=O)N[C@@H](C)C(=O)N[C@@H](CCCCN)C(=O)N[C@H](C(=O)N[C@@H](C)C(=O)N[C@@H](CC(C)C)C(=O)NCC(=O)N[C@@H](C)C(=O)N[C@@H](CC(C)C)C(N)=O)[C@@H](C)CC` [GMASKAGSIVGKIAKIALGAL], for which the minimum inhibitory concentration (MIC) amounted to 25 µM (≈ 48.9 µg/mL) in test [1], 25 µM (≈ 48.9 µg/mL) in test [2] and 50 µM (≈ 97.8 µg/mL) in test [3].

Turning to `CC(C)C[C@H](NC(=O)[C@H](CC(C)C)NC(=O)[C@H](CCCCN)NC(=O)[C@@H](N)Cc1c[nH]c2ccccc12)C(=O)N[C@@H](CO)C(=O)N[C@@H](CCCCN)C(=O)N[C@@H](C)C(=O)N[C@@H](CCC(N)=O)C(=O)N[C@@H](CCC(=O)O)C(=O)N[C@@H](CCCCN)C(=O)N[C@@H](Cc1ccccc1)C(=O)NCC(=O)N[C@@H](CCCCN)C(=O)N[C@@H](CC(N)=O)C(=O)N[C@@H](CCCCN)C(=O)N[C@@H](CO)C(=O)N[C@@H](CCCN=C(N)N)C(=O)N[C@@H](CS)C(N)=O` [WKLLSKAQEKFGKNKSRC], the MIC in test [8] turned out to be 62 µM (≈ 133 µg/mL); in test [1], 62 µM (≈ 133 µg/mL); in [10], 7.69 µM (≈ 16.5 µg/mL); in [3], 62 µM (≈ 133 µg/mL).

As for `CC(C)C[C@H](NC(=O)[C@H](Cc1ccc(O)cc1)NC(=O)[C@@H]1CCCN1C(=O)[C@@H]1CCCN1C(=O)[C@H](CCCCN)NC(=O)[C@@H]1CCCN1C(=O)[C@@H](N)C(C)C)C(=O)N1CCC[C@H]1C(=O)N[C@@H](CCCN=C(N)N)C(=O)N1CCC[C@H]1C(=O)N[C@@H](CCCN=C(N)N)C(=O)N1CCC[C@H]1C(=O)N1CCC[C@H]1C(=O)N[C@@H](CCCN=C(N)N)C(=O)N[C@@H](CCCN=C(N)N)C(=O)N[C@@H](CCCCN)C(=O)N[C@@H](Cc1ccc(O)cc1)C(=O)N[C@@H](CC(N)=O)C(=O)N[C@@H](Cc1cnc[nH]1)C(N)=O` [VPKPPYLPRPRPPRRKYNH], the MIC was 27 µM (≈ 64 µg/mL) in test [11], 2.11 µM (≈ 5 µg/mL) in [12] and 3.38 µM (≈ 8 µg/mL) in test [3].

In test [2], `CC[C@H](C)[C@H](NC(=O)[C@H](CCCCN)NC(=O)[C@H](CC(=O)O)NC(=O)[C@H](CC(C)C)NC(=O)[C@@H](NC(=O)[C@H](CC(N)=O)NC(=O)[C@@H](NC(=O)[C@H](Cc1ccccc1)NC(=O)[C@H](CC(C)C)NC(=O)[C@H](CCCCN)NC(=O)[C@H](CCCCN)NC(=O)CN)C(C)C)C(C)C)C(=O)N[C@@H](CCCN=C(N)N)C(=O)N[C@H]1CSSC[C@@H](C(=O)O)NC(=O)CNC(=O)CNC(=O)[C@H](C)NC(=O)[C@H](C(C)C)NC(=O)[C@H](CCCCN)NC1=O` [GKKLFVNVLDKIRCKVAGGC] had an MIC of at least 100 µM.

Turning to `CC[C@H](C)[C@H](NC(=O)[C@H](CCCN=C(N)N)NC(=O)[C@@H](N)CCCCN)C(=O)N[C@H](C(=O)N[C@@H](CCC(N)=O)C(=O)N[C@@H](CCCN=C(N)N)C(=O)N[C@@H](CCCCN)C(=O)N[C@@H](CCCCN)C(=O)N[C@@H](CC(=O)O)C(=O)N[C@@H](CCCCN)C(=O)N[C@@H](CCCCN)C(=O)N[C@@H](CCCN=C(N)N)C(=O)O)C(C)C` [KRIVQRKKDKKR], the MIC is 40 µM (≈ 63.3 µg/mL) in test [8], 40 µM (≈ 63.3 µg/mL) in test [6], 20 µM (≈ 31.7 µg/mL) in test [1] and at least 40 µM in test [2].

On to `CSCC[C@H](NC(=O)[C@H](CCCCN)NC(=O)[C@H](CC(C)C)NC(=O)[C@@H](N)Cc1ccccc1)C(=O)N[C@@H](CC(C)C)C(=O)N[C@@H](CCCCN)C(=O)N[C@@H](CCCCN)C(=O)N[C@@H](CC(C)C)C(=O)N[C@@H](CC(C)C)C(N)=O` [FLKMLKKLL], for which the MIC was 7.06 µM (≈ 7.99 µg/mL) in test [8], 14.1 µM (≈ 16 µg/mL) in [5], 28.2 µM (≈ 32 µg/mL) in test [1] and 14.1 µM (≈ 16 µg/mL) in test [3].

`CC[C@H](C)[C@H](NC(=O)CN)C(=O)N[C@@H](CCCCN)C(=O)N[C@@H](CCCCN)C(=O)N[C@@H](Cc1c[nH]c2ccccc12)C(=O)N[C@@H](CC(C)C)C(=O)N[C@@H](Cc1cnc[nH]1)C(=O)N[C@@H](CO)C(=O)N1CCC[C@H]1C(=O)N[C@@H](CCCCN)C(=O)N[C@@H](CCCCN)C(=O)N[C@@H](Cc1ccccc1)C(=O)N1CCC[C@H]1C(=O)N[C@@H](CCCCN)C(=O)N[C@@H](CCCCN)C(=O)N[C@@H](Cc1ccccc1)C(=O)N[C@H](C(=O)N[C@@H](CCCCN)C(=O)N[C@@H](CCCCN)C(=O)N[C@H](C(=O)N[C@@H](CCSC)C(=O)N[C@@H](CC(N)=O)C(=O)N[C@@H](CO)C(N)=O)[C@@H](C)CC)C(C)C` [GIKKWLHSPKKFPKKFVKKIMNS]: the minimal inhibitory concentration (MIC) was determined as 10 µM (≈ 27.7 µg/mL) in test [1] and 2.5 µM (≈ 6.92 µg/mL) in [10].

Take `CC[C@H](C)[C@H](NC(=O)[C@H](CCCCN)NC(=O)CNC(=O)CNC(=O)[C@H](CC(C)C)NC(=O)[C@H](CC(N)=O)NC(=O)[C@H](C)NC(=O)[C@H](C)NC(=O)[C@@H](N)CCC(=O)O)C(=O)N[C@@H](CC(C)C)C(=O)N[C@@H](CCC(=O)O)C(=O)N[C@@H](CCC(=O)O)C(=O)N[C@@H](CCCCN)C(=O)N[C@@H](CCCCN)C(=O)N[C@@H](CC(C)C)C(=O)N[C@@H](CO)C(=O)N[C@@H](CCCN=C(N)N)C(=O)N[C@@H](CC(C)C)C(=O)N1CCC[C@H]1C(=O)N1CCC[C@H]1C(=O)N[C@@H](CO)C(=O)N[C@@H](Cc1cnc[nH]1)C(=O)N[C@@H](CC(C)C)C(=O)O` [EAANLGGKILEEKKLSRLPPSHL]: the MIC in [1], in test [7] and in test [13] was above 200 µM each time.

For the compound `CC[C@H](C)[C@H](NC(=O)[C@H](CCCN=C(N)N)NC(=O)[C@@H](N)CCCCN)C(=O)N[C@@H](C)C(=O)N[C@@H](CCC(N)=O)C(=O)N[C@@H](CCCN=C(N)N)C(=O)N[C@H](C(=O)N[C@@H](CCCCN)C(=O)N[C@@H](C)C(=O)N[C@@H](Cc1ccccc1)C(=O)N[C@@H](CC(C)C)C(=O)N[C@@H](CCCN=C(N)N)C(=O)O)[C@@H](C)CC` [KRIAQRIKAFLR], the MIC in [8] was 5 µM (≈ 7.5 µg/mL); in test [6], 20 µM (≈ 30 µg/mL); in test [1], 2.5 µM (≈ 3.75 µg/mL); in test [2], 10 µM (≈ 15 µg/mL).
